Measurements published in paper PMC5761851, “Application of a phenotypic drug discovery strategy to identify biological and chemical starting points for inhibition of TSLP production in lung epithelial cells” (PLoS ONE, 2018).

Tests used:
Experiment in all cases: kinase selectivity panel
Assay type in all cases: biochemical
MEK1 = target: T1, MEK1 (Homo sapiens, UniProt Q02750); settings: read-out: percentage of control activity (POC), MEK1
T1 construct: purchased Eurofins Pharma Discovery Services (KinaseProfiler; Cerep BioPrint panel)
Method: (§1) Kinase selectivity was evaluated at Eurofins Pharma Discovery Services using a selection of 125 representative kinases tested at a concentration of 10 μM in duplicate (S3 Table). IC50 values for selected activities were further characterized at 9 duplicate concentrations. DNA-PK activity was determined at the SelectScreen® Biochemical kinase Profiling Service of Thermo Fisher Scientific.

BTK = target: T2, BTK (Homo sapiens, UniProt Q06187); settings: read-out: percentage of control activity (POC), BTK
T2 construct: purchased Eurofins Pharma Discovery Services (KinaseProfiler; Cerep BioPrint panel)
Method: as §1

Flt1 = target: T3, Flt1 (Homo sapiens, UniProt P17948); settings: read-out: percentage of control activity (POC), Flt1
T3 construct: purchased Eurofins Pharma Discovery Services (KinaseProfiler; Cerep BioPrint panel)
Method: as §1

JAK1 = target: T4, JAK1 (Homo sapiens, UniProt P23458); settings: read-out: percentage of control activity (POC), JAK1
T4 construct: purchased Eurofins Pharma Discovery Services (KinaseProfiler; Cerep BioPrint panel)
Method: as §1

CaMKIIγ = target: T5, CaMKIIγ (Homo sapiens, UniProt Q13555); settings: read-out: percentage of control activity (POC), CaMKIIγ
T5 construct: purchased Eurofins Pharma Discovery Services (KinaseProfiler; Cerep BioPrint panel)
Method: as §1

JNK3 = target: T6, JNK3 (Homo sapiens, UniProt P53779); settings: read-out: percentage of control activity (POC), JNK3
T6 construct: purchased Eurofins Pharma Discovery Services (KinaseProfiler; Cerep BioPrint panel)
Method: as §1

RIPK2 = target: T7, RIPK2 (Homo sapiens, UniProt O43353); settings: read-out: percentage of control activity (POC), RIPK2
T7 construct: purchased Eurofins Pharma Discovery Services (KinaseProfiler; Cerep BioPrint panel)
Method: as §1

SAPK3 = target: T8, SAPK3 (Homo sapiens, UniProt P53778); settings: read-out: percentage of control activity (POC), SAPK3
T8 construct: purchased Eurofins Pharma Discovery Services (KinaseProfiler; Cerep BioPrint panel)
T8 sequence (P53778 1-367): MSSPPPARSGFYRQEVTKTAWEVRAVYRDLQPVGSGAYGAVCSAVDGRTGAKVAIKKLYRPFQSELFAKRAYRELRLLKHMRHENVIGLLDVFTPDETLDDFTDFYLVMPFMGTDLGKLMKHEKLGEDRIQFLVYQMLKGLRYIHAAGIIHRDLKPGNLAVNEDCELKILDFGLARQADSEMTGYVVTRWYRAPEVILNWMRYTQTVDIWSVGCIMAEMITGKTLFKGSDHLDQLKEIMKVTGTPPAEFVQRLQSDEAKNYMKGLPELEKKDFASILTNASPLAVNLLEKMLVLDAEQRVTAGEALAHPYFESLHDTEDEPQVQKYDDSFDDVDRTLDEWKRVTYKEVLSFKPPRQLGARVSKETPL
Method: as §1

CK1γ1 = target: T9, CK1γ1 (Homo sapiens, UniProt Q9HCP0); settings: read-out: percentage of control activity (POC), CK1γ1
T9 construct: purchased Eurofins Pharma Discovery Services (KinaseProfiler; Cerep BioPrint panel)
T9 sequence (Q9HCP0 whole entry): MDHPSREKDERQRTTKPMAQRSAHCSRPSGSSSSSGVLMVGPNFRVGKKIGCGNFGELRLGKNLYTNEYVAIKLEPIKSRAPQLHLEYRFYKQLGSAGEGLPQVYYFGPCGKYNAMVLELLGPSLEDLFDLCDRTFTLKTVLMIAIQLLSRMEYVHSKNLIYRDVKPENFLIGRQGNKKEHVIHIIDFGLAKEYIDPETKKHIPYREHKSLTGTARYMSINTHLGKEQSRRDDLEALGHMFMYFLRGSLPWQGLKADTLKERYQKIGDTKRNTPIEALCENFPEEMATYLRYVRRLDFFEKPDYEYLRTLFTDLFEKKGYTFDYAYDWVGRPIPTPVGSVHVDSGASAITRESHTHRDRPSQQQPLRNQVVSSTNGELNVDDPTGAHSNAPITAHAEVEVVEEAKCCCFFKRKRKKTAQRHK
Method: as §1

PKCα = target: T10, PKCα (Homo sapiens, UniProt P17252); settings: read-out: percentage of control activity (POC), PKCα
T10 construct: purchased Eurofins Pharma Discovery Services (KinaseProfiler; Cerep BioPrint panel)
Method: as §1

CaMKIIδ = target: T11, CaMKIIδ (Homo sapiens, UniProt Q13557); settings: read-out: percentage of control activity (POC), CaMKIIδ
T11 construct: purchased Eurofins Pharma Discovery Services (KinaseProfiler; Cerep BioPrint panel)
Method: as §1

PKCγ = target: T12, PKCγ (Homo sapiens, UniProt P05129); settings: read-out: percentage of control activity (POC), PKCγ
T12 construct: purchased Eurofins Pharma Discovery Services (KinaseProfiler; Cerep BioPrint panel)
Method: as §1

SAPK2a = target: T13, SAPK2a (Homo sapiens, UniProt Q16539); settings: for inhibition at 10 µM: read-out: inhibition of p38α(SAPK2α); for remaining activity at 10 µM: read-out: percentage of control activity (POC), SAPK2a
T13 construct: purchased Eurofins Pharma Discovery Services (KinaseProfiler; Cerep BioPrint panel)
Method: as §1

Ret = target: T14, Ret (Homo sapiens, UniProt P07949); settings: read-out: percentage of control activity (POC), Ret
T14 construct: purchased Eurofins Pharma Discovery Services (KinaseProfiler; Cerep BioPrint panel)
T14 sequence (P07949 29-1114): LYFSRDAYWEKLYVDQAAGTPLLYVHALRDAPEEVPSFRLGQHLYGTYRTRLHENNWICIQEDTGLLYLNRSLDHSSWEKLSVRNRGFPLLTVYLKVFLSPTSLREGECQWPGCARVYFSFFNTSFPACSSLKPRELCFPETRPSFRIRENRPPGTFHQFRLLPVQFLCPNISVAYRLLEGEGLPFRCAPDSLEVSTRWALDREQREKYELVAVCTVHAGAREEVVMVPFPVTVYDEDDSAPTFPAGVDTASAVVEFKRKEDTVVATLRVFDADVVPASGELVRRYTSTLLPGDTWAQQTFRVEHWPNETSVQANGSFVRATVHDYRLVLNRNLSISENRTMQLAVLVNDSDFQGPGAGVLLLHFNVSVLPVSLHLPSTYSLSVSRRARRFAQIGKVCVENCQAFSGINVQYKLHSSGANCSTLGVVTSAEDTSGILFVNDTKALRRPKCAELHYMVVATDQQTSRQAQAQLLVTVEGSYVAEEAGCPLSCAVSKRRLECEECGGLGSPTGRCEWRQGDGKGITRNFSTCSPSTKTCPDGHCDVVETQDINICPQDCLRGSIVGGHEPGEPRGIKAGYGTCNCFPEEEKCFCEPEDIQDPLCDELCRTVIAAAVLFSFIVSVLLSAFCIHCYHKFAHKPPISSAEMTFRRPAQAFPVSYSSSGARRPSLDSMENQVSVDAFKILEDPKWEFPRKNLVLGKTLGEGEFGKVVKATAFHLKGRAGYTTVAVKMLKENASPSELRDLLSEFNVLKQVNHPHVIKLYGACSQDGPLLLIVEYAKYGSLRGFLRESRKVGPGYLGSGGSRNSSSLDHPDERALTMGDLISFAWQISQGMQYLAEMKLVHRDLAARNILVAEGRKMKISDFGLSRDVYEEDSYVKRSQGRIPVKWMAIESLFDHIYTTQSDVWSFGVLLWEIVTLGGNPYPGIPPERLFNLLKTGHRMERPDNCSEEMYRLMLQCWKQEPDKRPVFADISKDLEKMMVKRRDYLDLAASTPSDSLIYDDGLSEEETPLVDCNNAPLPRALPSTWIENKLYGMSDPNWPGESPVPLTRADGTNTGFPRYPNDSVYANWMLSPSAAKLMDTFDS
Method: as §1

FGFR1 = target: T15, FGFR1 (Homo sapiens, UniProt P11362); settings: read-out: percentage of control activity (POC), FGFR1
T15 construct: purchased Eurofins Pharma Discovery Services (KinaseProfiler; Cerep BioPrint panel)
Method: as §1

Met = target: T16, Met (Homo sapiens, UniProt P08581); settings: read-out: percentage of control activity (POC), Met
T16 construct: purchased Eurofins Pharma Discovery Services (KinaseProfiler; Cerep BioPrint panel)
Method: as §1

SAPK2b = target: T17, SAPK2b (Homo sapiens, UniProt Q15759); settings: for inhibition at 10 µM: read-out: inhibition of p38 β(SAPK2β); for remaining activity at 10 µM: read-out: percentage of control activity (POC), SAPK2b
T17 construct: purchased Eurofins Pharma Discovery Services (KinaseProfiler; Cerep BioPrint panel)
Method: as §1

LOK = target: T18, LOK (Homo sapiens, UniProt O94804); settings: read-out: percentage of control activity (POC), LOK
T18 construct: purchased Eurofins Pharma Discovery Services (KinaseProfiler; Cerep BioPrint panel)
Method: as §1

PDGFRβ = target: T19, PDGFRβ (Homo sapiens, UniProt P09619); settings: read-out: percentage of control activity (POC), PDGFRβ
T19 construct: purchased Eurofins Pharma Discovery Services (KinaseProfiler; Cerep BioPrint panel)
T19 sequence (P09619 33-1106): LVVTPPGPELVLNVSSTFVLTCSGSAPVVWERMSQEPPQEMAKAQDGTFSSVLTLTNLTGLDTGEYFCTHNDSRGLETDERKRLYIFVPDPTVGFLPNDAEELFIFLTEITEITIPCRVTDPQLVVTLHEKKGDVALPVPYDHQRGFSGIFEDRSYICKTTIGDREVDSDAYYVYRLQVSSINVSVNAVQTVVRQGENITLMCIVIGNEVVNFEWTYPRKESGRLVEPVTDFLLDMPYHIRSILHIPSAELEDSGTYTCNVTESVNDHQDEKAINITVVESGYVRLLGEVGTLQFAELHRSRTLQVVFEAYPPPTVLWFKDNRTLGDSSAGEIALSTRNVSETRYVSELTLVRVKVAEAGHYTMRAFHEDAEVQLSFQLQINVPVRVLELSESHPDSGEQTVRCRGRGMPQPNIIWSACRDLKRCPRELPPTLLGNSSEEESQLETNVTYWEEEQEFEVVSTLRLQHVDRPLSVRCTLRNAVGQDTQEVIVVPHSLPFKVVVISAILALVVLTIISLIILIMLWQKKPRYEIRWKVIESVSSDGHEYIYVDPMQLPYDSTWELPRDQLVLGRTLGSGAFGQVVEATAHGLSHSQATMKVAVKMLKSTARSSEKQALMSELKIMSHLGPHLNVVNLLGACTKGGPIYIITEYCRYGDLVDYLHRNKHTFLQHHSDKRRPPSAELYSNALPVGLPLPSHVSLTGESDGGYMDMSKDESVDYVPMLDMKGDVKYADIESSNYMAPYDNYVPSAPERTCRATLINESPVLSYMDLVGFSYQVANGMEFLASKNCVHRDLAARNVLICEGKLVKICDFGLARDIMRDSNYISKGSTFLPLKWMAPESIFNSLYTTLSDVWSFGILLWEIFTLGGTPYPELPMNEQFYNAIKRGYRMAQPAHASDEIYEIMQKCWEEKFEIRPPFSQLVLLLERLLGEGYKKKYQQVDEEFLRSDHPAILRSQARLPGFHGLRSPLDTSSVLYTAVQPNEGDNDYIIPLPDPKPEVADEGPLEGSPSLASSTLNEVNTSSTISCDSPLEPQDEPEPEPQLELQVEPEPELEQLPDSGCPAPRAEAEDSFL
Method: as §1

Flt4 = target: T20, Flt4 (Homo sapiens, UniProt P35916); settings: for remaining activity at 10 µM: read-out: percentage of control activity (POC), Flt4
T20 construct: Eurofins Pharma Discovery Services (contract assay service)
T20 sequence (P35916 25-1363, species assumed): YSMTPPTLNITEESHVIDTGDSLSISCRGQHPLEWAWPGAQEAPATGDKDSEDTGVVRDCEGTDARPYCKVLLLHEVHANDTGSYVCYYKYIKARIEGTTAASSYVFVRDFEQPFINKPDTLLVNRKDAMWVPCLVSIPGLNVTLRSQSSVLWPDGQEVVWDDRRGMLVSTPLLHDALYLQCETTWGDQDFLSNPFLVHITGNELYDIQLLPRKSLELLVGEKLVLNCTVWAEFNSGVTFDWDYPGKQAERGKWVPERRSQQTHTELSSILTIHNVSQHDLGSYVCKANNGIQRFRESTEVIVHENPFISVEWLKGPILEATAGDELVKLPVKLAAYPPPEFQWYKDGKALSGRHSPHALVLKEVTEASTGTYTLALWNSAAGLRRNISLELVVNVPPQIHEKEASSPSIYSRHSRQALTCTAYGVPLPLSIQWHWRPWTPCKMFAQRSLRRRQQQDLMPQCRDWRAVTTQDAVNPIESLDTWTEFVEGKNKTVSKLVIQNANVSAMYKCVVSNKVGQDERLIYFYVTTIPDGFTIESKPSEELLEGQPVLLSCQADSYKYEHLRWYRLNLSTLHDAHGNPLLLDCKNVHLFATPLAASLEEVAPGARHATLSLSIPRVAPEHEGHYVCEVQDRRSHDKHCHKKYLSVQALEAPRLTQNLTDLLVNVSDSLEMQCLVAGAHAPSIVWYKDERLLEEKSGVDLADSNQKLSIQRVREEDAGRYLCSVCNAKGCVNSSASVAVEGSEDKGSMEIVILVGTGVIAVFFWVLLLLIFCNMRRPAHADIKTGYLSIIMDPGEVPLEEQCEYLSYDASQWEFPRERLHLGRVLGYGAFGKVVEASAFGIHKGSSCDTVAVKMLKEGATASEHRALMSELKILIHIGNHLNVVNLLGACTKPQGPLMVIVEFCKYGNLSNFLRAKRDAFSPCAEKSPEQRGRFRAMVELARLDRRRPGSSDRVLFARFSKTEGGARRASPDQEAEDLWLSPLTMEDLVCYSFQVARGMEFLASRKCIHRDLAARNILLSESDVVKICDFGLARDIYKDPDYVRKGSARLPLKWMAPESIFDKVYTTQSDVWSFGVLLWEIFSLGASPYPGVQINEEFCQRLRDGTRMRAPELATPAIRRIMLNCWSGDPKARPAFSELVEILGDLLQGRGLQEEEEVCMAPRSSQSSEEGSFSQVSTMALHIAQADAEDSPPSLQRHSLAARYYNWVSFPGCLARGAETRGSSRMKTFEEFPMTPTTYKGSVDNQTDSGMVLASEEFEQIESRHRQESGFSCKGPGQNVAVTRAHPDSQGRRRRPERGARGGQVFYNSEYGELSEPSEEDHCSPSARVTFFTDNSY
Method: as §1

ROCK-II = target: T21, ROCK-II (Homo sapiens, UniProt O75116); settings: read-out: percentage of control activity (POC), ROCK-II
T21 construct: purchased Eurofins Pharma Discovery Services (KinaseProfiler; Cerep BioPrint panel)
Method: as §1

BRK = target: T22, BRK (Homo sapiens, UniProt Q13882); settings: read-out: percentage of control activity (POC), BRK
T22 construct: purchased Eurofins Pharma Discovery Services (KinaseProfiler; Cerep BioPrint panel)
Method: as §1

Rsk2 = target: T23, Rsk2 (Homo sapiens, UniProt P51812); settings: read-out: percentage of control activity (POC), Rsk2
T23 construct: purchased Eurofins Pharma Discovery Services (KinaseProfiler; Cerep BioPrint panel)
Method: as §1

PKA = target: T24, PKA (Homo sapiens, UniProt P17612); settings: read-out: percentage of control activity (POC), PKA
T24 construct: purchased Eurofins Pharma Discovery Services (KinaseProfiler; Cerep BioPrint panel)
Method: as §1

PI3K (p120g) = target: T25, PI3K (p120g) (Homo sapiens, UniProt P48736); settings: for remaining activity at 10 µM: read-out: percentage of control activity (POC), PI3K (p120g)
T25 construct: Eurofins Pharma Discovery Services (contract assay service)
Method: as §1

PI3K (p110b/p85a) = target: T26, PI3K (p110b/p85a) (Homo sapiens, UniProt P42338); settings: read-out: percentage of control activity (POC), PI3K (p110b/p85a)
T26 construct: purchased Eurofins Pharma Discovery Services (KinaseProfiler; Cerep BioPrint panel)
Method: as §1

Lck = target: T27, Lck (Homo sapiens, UniProt P06239); settings: for remaining activity at 10 µM: read-out: percentage of control activity (POC), Lck
T27 construct: Eurofins Pharma Discovery Services (contract assay service)
T27 sequence (P06239 whole entry, species assumed): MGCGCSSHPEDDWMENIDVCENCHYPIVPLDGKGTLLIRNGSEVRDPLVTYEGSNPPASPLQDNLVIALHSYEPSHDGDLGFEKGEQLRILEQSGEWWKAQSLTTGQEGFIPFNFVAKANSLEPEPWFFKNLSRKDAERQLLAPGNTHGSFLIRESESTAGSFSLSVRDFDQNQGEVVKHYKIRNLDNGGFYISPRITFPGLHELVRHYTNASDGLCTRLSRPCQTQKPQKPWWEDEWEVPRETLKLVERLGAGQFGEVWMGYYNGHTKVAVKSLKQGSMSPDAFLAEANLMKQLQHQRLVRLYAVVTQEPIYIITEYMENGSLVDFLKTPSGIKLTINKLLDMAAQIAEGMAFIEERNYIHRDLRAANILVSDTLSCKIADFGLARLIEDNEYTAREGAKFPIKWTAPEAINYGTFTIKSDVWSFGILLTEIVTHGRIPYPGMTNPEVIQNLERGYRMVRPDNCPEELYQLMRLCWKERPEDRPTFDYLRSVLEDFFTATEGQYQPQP
Method: as §1

Compound | remaining activity at 10 µM (MEK1) | remaining activity at 10 µM (BTK) | remaining activity at 10 µM (Flt1) | remaining activity at 10 µM (JAK1) | remaining activity at 10 µM (CaMKIIγ) | remaining activity at 10 µM (JNK3) | remaining activity at 10 µM (RIPK2) | remaining activity at 10 µM (SAPK3) | remaining activity at 10 µM (CK1γ1) | remaining activity at 10 µM (PKCα) | remaining activity at 10 µM (CaMKIIδ) | remaining activity at 10 µM (PKCγ) | remaining activity at 10 µM (SAPK2a) | remaining activity at 10 µM (Ret) | remaining activity at 10 µM (FGFR1) | remaining activity at 10 µM (Met) | remaining activity at 10 µM (SAPK2b) | remaining activity at 10 µM (LOK) | remaining activity at 10 µM (PDGFRβ) | remaining activity at 10 µM (Flt4; 10 μM) | other results
CC(C)(C)N1CCC(c2cc(-c3ccc(F)cc3Cl)c3cc[n+]([O-])c(-c4c(Cl)cccc4Cl)c3n2)CC1 [compound 2] | 112% | 114% | 114% | 91% | 91% | 97% | 61% | 75% | 101% | 106% | 100% | 117% | -1% | 100% | 80% | 83% | -5% | 107% | 70% | 108% | inhibition at 10 µM (SAPK2a): ~100%; inhibition at 10 µM (SAPK2b): ~100%; remaining activity at 10 µM (ROCK-II): 100%; remaining activity at 10 µM (BRK): 98%; remaining activity at 10 µM (Rsk2): 101%; remaining activity at 10 µM (PKA): 109%; remaining activity at 10 µM (PI3K (p120g); 10 μM): 92%; remaining activity at 10 µM (PI3K (p110b/p85a)): 92%; remaining activity at 10 µM (Lck; 10 μM): 98%
Cc1ccc(C(=O)NCC2CC2)cc1-c1ccc2c(c1)NC(=O)C21CCCC1 [compound 3] | 94% | 98% | 128% | 93% | 103% | 65% | 94% | 78% | 98% | 95% | 103% | 104% | -2% | 89% | 95% | 86% | -6% | 112% | 61% | 78% | inhibition at 10 µM (SAPK2a): ~100%; inhibition at 10 µM (SAPK2b): ~100%; remaining activity at 10 µM (ROCK-II): 96%; remaining activity at 10 µM (BRK): 103%; remaining activity at 10 µM (Rsk2): 103%; remaining activity at 10 µM (PKA): 99%; remaining activity at 10 µM (PI3K (p120g); 10 μM): 85%; remaining activity at 10 µM (PI3K (p110b/p85a)): 86%; remaining activity at 10 µM (Lck; 10 μM): 102%
Cn1cc(-c2cccc(-c3nc(C(=O)NC4C5CC6CC4CC(O)(C6)C5)c(N)nc3N)c2)cn1 (stereo not shown) [compound 4] | 97% | 89% | 84% | 86% | 83% | 72% | 61% | 92% | 89% | 85% | 93% | 96% | 91% | 63% | 86% | 87% | 99% | 109% | 63% | 20% | inhibition at 10 µM (Flt4; 10 μM, read-out: inhibition of Ftl4): 80%; IC50 (Flt4; biochemical dose response, duplicate, read-out: Inhibition of indicated activity (IC50, μM): Ftl4): 3.13 µM; remaining activity at 10 µM (ROCK-II): 85%; remaining activity at 10 µM (BRK): 71%; remaining activity at 10 µM (Rsk2): 88%; remaining activity at 10 µM (PKA): 100%; inhibition at 10 µM (PI3K (p120g); 10 μM, read-out: inhibition of PI3K (p120γ)): 67%; remaining activity at 10 µM (PI3K (p120g); 10 μM): 33%; IC50 (PI3K (p120g); biochemical dose response, duplicate, read-out: Inhibition of indicated activity (IC50, μM): PI3K (p120γ)): 4.78 µM; remaining activity at 10 µM (PI3K (p110b/p85a)): 71%; inhibition at 10 µM (Lck; 10 μM): 56%; remaining activity at 10 µM (Lck; 10 μM): 44%; IC50 (Lck; biochemical dose response, duplicate, read-out: Inhibition of indicated activity (IC50, μM): Lck): 3.33 µM
